Reference: paper PMC3942423 (Nature chemical biology, 2009)

Tests used:
[1] = system: Bt3990 E533A variant; assay: kinetics of enzyme variant on DNP-Man; format: biochemical, Bacteroides thetaiotaomicron; settings: E533A variant of Bt3990, activated aryl mannoside
[2] = biological target: Bt3990 E585A (Bacteroides thetaiotaomicron, UniProt Q8A0N1, E585A); assay: kinetics of enzyme variant; format: biochemical; settings: E585A of Bt3990, activated substrate
[3] = biological target: T1, Bt3990 (Bacteroides thetaiotaomicron, UniProt Q8A0N1); assay: inhibition studies; format: biochemical
T1 sequence (Q8A0N1 20-755): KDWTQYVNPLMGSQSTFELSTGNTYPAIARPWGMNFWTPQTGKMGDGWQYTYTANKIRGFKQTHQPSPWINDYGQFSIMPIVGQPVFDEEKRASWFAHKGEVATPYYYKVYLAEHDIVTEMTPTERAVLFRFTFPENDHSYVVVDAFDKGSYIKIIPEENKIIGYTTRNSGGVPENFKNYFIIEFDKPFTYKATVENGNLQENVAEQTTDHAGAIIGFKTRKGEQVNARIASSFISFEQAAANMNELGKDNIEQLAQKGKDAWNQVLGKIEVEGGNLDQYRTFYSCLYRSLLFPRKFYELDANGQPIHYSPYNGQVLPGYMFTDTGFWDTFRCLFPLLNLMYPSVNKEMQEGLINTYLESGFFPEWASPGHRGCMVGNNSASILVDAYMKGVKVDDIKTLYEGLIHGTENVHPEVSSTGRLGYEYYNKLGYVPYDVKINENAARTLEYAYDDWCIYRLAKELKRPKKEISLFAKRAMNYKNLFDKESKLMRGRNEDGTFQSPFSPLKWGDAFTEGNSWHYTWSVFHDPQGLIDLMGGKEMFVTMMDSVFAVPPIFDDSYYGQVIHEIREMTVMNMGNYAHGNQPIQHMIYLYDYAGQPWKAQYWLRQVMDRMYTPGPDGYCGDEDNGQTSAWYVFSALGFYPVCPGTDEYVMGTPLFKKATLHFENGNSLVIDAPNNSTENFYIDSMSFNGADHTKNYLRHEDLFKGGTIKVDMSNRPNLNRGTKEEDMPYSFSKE

Structure (SMILES)	kcat/Km relative to the wild-type enzyme [1] [%]	change of kcat/Km [2]	Ki [3] [µM]
O=[N+]([O-])c1ccc(O[C@H]2O[C@H](CO)[C@@H](O)[C@H](O)[C@@H]2O)c([N+](=O)[O-])c1 [DNP-Man]	370	increased	
OC[C@@H]1[C@@H](O)[C@H](O)[C@H](O)c2nccn21 [mannoimidazole]			140
